In patent US4298610A, “Ester derivatives of quinolopyran-4-one-2-carboxylic acids and antiallergic antasthmatics” (priority 1978, dated 1981):

Tests used:
[1] = system: passive cutaneous anaphylaxis; test: passive cutaneous anaphylaxis test (P.C.A.) on rats, oral administration; assay type: in vivo, rat (SLC Wister); settings: 0.5 h, rat, 30 mg/kg, antigen 30 minutes after administration, read-out: Percent inhibition (%)
Description: Various 5-hydroxy-quinolopyran-4-one-2-carboxylic acid esters in terms of the R group represented by the general formula [I] were prepared. […] In order to estimate the efficacy of each compound as an anti-allergic antasthmatic, the efficacy was evaluated according to a passive cutaneous anaphylaxis test (P.C.A.) on rats.
To SLC Wister rats were administered intracutaneously egg white albumin recrystallized 5 times and Bodetallapertussis Vaccine, and serum was collected after 13 days from the rats. […] A physiological salt solution in which egg white albumin and a dye (Evans' blue) were dissolved was administered intravenously, 30 minutes after the oral administration, to the rats; and 30 minutes thereafter the back skins of the rats were peeled off. The dye that transuded from the peeled skin was extracted with Na2 SO4 and acetone, and the quantities of the dye were measured by colorimetry at 620 m μ.

[2] = system: passive cutaneous anaphylaxis; test: duration of action in the passive cutaneous anaphylaxis test of the rats, interval between oral administration and antigen varied; assay type: in vivo, rat (SLC Wister); settings: 30 mg/kg
Description: To SLC Wister rats were administered intracutaneously egg white albumin recrystallized 5 times and Bodetallapertussis Vaccine, and serum was collected after 13 days from the rats. […] The serum was diluted 128 times and it was then administered intracutaneously to the back of the rats. After 48 hours, the compounds of the present invention in the quantities shown in Table 1 which had been suspended in 1% tragacanth solution were administered orally to the rats. A physiological salt solution in which egg white albumin and a dye (Evans' blue) were dissolved was administered intravenously, 30 minutes after the oral administration, to the rats; and 30 minutes thereafter the back skins of the rats were peeled off. The dye that transuded from the peeled skin was extracted with Na2 SO4 and acetone, and the quantities of the dye were measured by colorimetry at 620 m μ.
In the above-described passive cutaneous anaphylaxis test of the rats, the intervals between the oral administration of the present compounds and the administration of egg white albumin and the dye were variously changed to observe the changes in the effect of the compounds depending upon the intervals.
As a representative compound of the present invention, 2-methyl-1-pentyl ester of 7,8-dimethyl-5-hydroxy-quinolo[4,3-b]pyran-4-one-2-carboxylic acid was used. The percent inhibition is shown in Table 2 when the compound was orally administered in a ratio of 30 mg/kg.

[3] = cited from earlier work
allergic asthma = settings: Cox et al; cited from earlier work

## CCCC(C)COC(=O)c1cc(=O)c2c(O)nc3c(C)c(C)ccc3c2o1 (centres unmarked) [2-methyl-1-pentyl ester of 7,8-dimethyl-5-hydroxy-quinolo[4,3-b]pyran-4-one-2-carboxylic acid]
[1]
  inhibition in vivo at 30 mg/kg: 97.9%
[2]; period of time 10 min.
  Percent inhibition (%): 96.5%
[2]; period of time 20 min.
  Percent inhibition (%): 98.5%
[2]; period of time 30 min.
  Percent inhibition (%): 95.0%
[2]; period of time 40 min.
  Percent inhibition (%): 93.0%
[2]; period of time 1 hr.
  Percent inhibition (%): 92.5%
[2]; period of time 2 hrs.
  Percent inhibition (%): 72.5%
[2]; period of time 3 hrs.
  Percent inhibition (%): 61.5%
[2]; period of time 4 hrs.
  Percent inhibition (%): 53.0%

## O=C(O)c1cc(=O)c2c(OCC(O)COc3cccc4oc(C(=O)O)cc(=O)c34)cccc2o1 [disodium cromoglycate]
[3]
  absorption via oral administration: cannot be absorbed via oral administration
Allergic asthma
  effectiveness for allergic asthma: effective for allergic asthma

## CCCCCCCCCCOC(=O)c1cc(=O)c2c(O)nc3c(C)c(C)ccc3c2o1 [n-decyl ester of 7,8-dimethyl-5-hydroxy-quinolo[4,3-b]pyran-4-one-2-carboxylic acid, reference compound]
[1]
  inhibition in vivo at 30 mg/kg: 4.7%

## CCCCCCCCCCCCOC(=O)c1cc(=O)c2c(O)nc3c(C)c(C)ccc3c2o1 [n-dodecyl ester of 7,8-dimethyl-5-hydroxy-quinolo[4,3-b]pyran-4-one-2-carboxylic acid, reference compound]
[1]
  inhibition in vivo at 30 mg/kg: -26.2%

## CCCCCCCOC(=O)c1cc(=O)c2c(O)nc3c(C)c(C)ccc3c2o1 [n-heptyl ester of 7,8-dimethyl-5-hydroxy-quinolo[4,3-b]pyran-4-one-2-carboxylic acid, reference compound]
[1]
  inhibition in vivo at 30 mg/kg: 36.3%

## CCCCCCOC(=O)c1cc(=O)c2c(O)nc3c(C)c(C)ccc3c2o1 [n-hexyl ester of 7,8-dimethyl-5-hydroxy-quinolo[4,3-b]pyran-4-one-2-carboxylic acid]
[1]
  inhibition in vivo at 30 mg/kg: 72%

## CCCCCCCCOC(=O)c1cc(=O)c2c(O)nc3c(C)c(C)ccc3c2o1 [n-octyl ester of 7,8-dimethyl-5-hydroxy-quinolo[4,3-b]pyran-4-one-2-carboxylic acid, reference compound]
[1]
  inhibition in vivo at 30 mg/kg: 39.3%

## CCCCCOC(=O)c1cc(=O)c2c(O)nc3c(C)c(C)ccc3c2o1 [n-pentyl ester of 7,8-dimethyl-5-hydroxy-quinolo[4,3-b]pyran-4-one-2-carboxylic acid, reference compound]
[1]
  inhibition in vivo at 30 mg/kg: 26.5%
